Data published in PMC3648619 (Journal of inorganic biochemistry, 2013).

Each substance was assayed against T1, 20S proteasome, β5 subunit (chymotrypsin-like activity) (Homo sapiens, UniProt P28074).
T1 sequence (P28074 60-263): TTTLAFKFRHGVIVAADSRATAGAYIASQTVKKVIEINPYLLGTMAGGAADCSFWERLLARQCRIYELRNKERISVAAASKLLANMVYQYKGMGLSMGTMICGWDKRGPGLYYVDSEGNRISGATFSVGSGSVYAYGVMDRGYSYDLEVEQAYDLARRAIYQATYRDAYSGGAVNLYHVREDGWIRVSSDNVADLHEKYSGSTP
Format: biochemical

Substance	IC50 [nM]
[Cd(C7H4N2O2)(C8H6O2)2]·2H2O [Cd3]	3300
[Cd2(C12H12O2N)4(H2O)2]·2H2O [Cd1]	2600
[Cd2(C11H10O2N)4(H2O)2]·2H2O	3000
